Assay results from US20250188085A1, “COMPOSITIONS AND METHODS FOR INHIBITION OF RAS” (THERAS, INC., priority 2022, published 2025).
Like-named read-outs stand apart in the source and are kept apart here.

Assays:
[1] = target: T1, GppNHp-loaded KRAS4b (amino acids 1-169) G12C/C118S protein (Homo sapiens, UniProt P01116, C118S/G12C); assay: Covalent cysteine 12 modification by MALDI-TOF MS, GppNHp-loaded KRAS G12C; format: binding; conditions: 15 minutes reaction time point
T1 construct: KRAS4b (amino acids 1-169) G12C/C118S protein; made in house
Summary of the method: (§1)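 KRAS4b 1-169 G12C/C118S loaded with GDP, GppNHp or GTP was used at 1 μM in 20 mM HEPES, 150 mM NaCl, 1 mM MgCl2, pH 7.3, and incubated with compound (5 mM DMSO stock) at room temperature in the dark. % modification at 15 min is adduct peak height over total protein peak heights by linear-mode MALDI-TOF.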

pERK in NCI-H358 cells = assay: Cell-based pERK HTRF assay; conditions: 30 min incubation, read-out: pERK in NCI-H358 cell inhibition IC50
Summary of the method: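 Cells seeded at 4×10^4/well in RPMI with 10% FBS, then next day treated for 30 min with a 9-point, 3-fold series from 75 μM top concentration at 0.25% DMSO. Lysates were read for pERK by HTRF (d2/Eu cryptate antibodies) after 4–24 h at room temperature, emission at 615 nm.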

[2] = target: T2, GTP-loaded KRAS4b (amino acids 1-169) G12C/C118S protein (Homo sapiens, UniProt P01116, C118S/G12C); assay: Covalent cysteine 12 modification by MALDI-TOF MS, GTP-loaded KRAS G12C; format: binding; conditions: 15 minutes reaction time point
T2 construct: KRAS4b (amino acids 1-169) G12C/C118S protein; made in house
Summary of the method: as §1

[3] = target: T3, GDP-loaded KRAS4b (amino acids 1-169) G12C/C118S protein (Homo sapiens, UniProt P01116, C118S/G12C); assay: Covalent cysteine 12 modification by MALDI-TOF MS, GDP-loaded KRAS G12C; format: binding; conditions: 15 minutes reaction time point
T3 construct: KRAS4b (amino acids 1-169) G12C/C118S protein; made in house
Summary of the method: as §1

[4] = target: T4, Avi-KRAS G12C (1-169) GppNHp/RAF1 RBD-3×FLAG (52-151) (Homo sapiens, UniProt P01116, G12C); assay: Raf1 RBD-KRAS G12C-GppNHp disruption (protein:protein interaction HTRF assay); format: biochemical
T4 construct: Avi-KRAS G12C (1-169) GppNHp/RAF1 RBD-3×FLAG (52-151)
Summary of the method: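 HTRF measuring disruption of 50 nM Avi-KRAS G12C (1-169) loaded with GppNHp binding RAF1 RBD-3×FLAG (52-151), in pH 7.5 Tris buffer with 5 mM MgCl2, 0.1% BSA, 10% DMSO. KRAS preincubated with compound 1 h, then RBD 1 h, then detection reagents 1 h, all at room temperature. Compound titration 30-0.02 μM; activity expressed as percent of DMSO control.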

SMILES | GppNHp-KRAS G12C percent of modification [1] | IC50 (pERK in NCI-H358 cells; Homo sapiens, NCI-H358, 0.5 h) [µM] | GTP-KRAS G12C percent of modification [2] | GDP-KRAS G12C percent of modification [3] | IC50 [4] [µM] | IC50 (pERK in NCI-H358 cells) [µM]
C=CC(=O)N1CC[C@@H](Oc2nc(OC[C@@]34CCCN3C[C@H](F)C4)nc3c(F)c(-c4ccc(F)c5sc(N)c(C#N)c45)ncc23)[C@H]1C [Compound 73, 4-(4-(((2R,3R)-1-acryloyl-2-methylpyrrolidin-3-yl)oxy)-8-fluoro-2-(((2R,7aS)-2-fluorotetrahydro-1H-pyrrolizin-7a (5H)-yl)methoxy)pyrido[4,3-d]pyrimidin-7-yl)-2-amino-7-fluorobenzo[b]thiophene-3-carbonitrile] | A (percent of modification ≥70%) | ≤ 0.1 | A (percent of modification ≥70%) | A (percent of modification ≥70%) | ≤ 0.5 | 
C=CC(=O)N1CCC(Oc2nc(N3CC(N4CC5(CC5)C4)C3)nc3c(F)c(-c4ccc(F)c5sc(N)c(C#N)c45)c(C(F)(F)F)cc23)C1 (stereo not drawn) [Compound 78] | C (10%≤modification <50%) | ≤ 0.1 | D (percent of modification <10%) | C (10%≤modification <50%) | ≤ 0.5 | 
C=CC(=O)N1C[C@@H](F)[C@@H](Oc2nc(OC[C@@]34CCCN3C[C@H](F)C4)nc3c(F)c(-c4ccc(F)c5sc(N)nc45)ccc23)C1 [Compound 82] | B (50≤percent of modification <70%) | ≤ 0.1 | C (10%≤modification <50%) | A (percent of modification ≥70%) | ≤ 0.5 | 
C=CC(=O)N1C[C@H](Oc2nc(OC[C@@]34CCCN3C[C@H](F)C4)nc3cc(-c4ccc(F)c5sc(N)c(C#N)c45)c(C(F)(F)F)nc23)C[C@H]1C [Compound 83] | B (50≤percent of modification <70%) | ≤ 0.1 | C (10%≤modification <50%) | A (percent of modification ≥70%) | ≤ 0.5 | 
C=CC(=O)N1C[C@H](Oc2nc(OC[C@@]34CCCN3C[C@H](F)C4)nc3cc(-c4ccc(F)c5sc(N)c(C#N)c45)c(C(F)(F)F)nc23)C[C@H]1C [Compound 84] | C (10%≤modification <50%) |  | C (10%≤modification <50%) | C (10%≤modification <50%) | ≤ 0.5 | ≤ 0.1

Second part, the molecule after the results:

GppNHp-KRAS G12C percent of modification [1] | IC50 (pERK in NCI-H358 cells; Homo sapiens, NCI-H358, 0.5 h) [µM] | GTP-KRAS G12C percent of modification [2] | GDP-KRAS G12C percent of modification [3] | IC50 [4] [µM] | IC50 (pERK in NCI-H358 cells) [µM] | SMILES
A (percent of modification ≥70%) | ≤ 0.1 | A (percent of modification ≥70%) | A (percent of modification ≥70%) | ≤ 0.5 |  | C=CC(=O)N1C[C@H](Oc2nc(OC[C@@]34CCCN3C[C@H](F)C4)nc3c(F)c(-c4ccc(F)c5sc(N)c(C#N)c45)ncc23)[C@@H](F)C1 [Compound 75]
A (percent of modification ≥70%) | ≤ 0.1 | A (percent of modification ≥70%) | A (percent of modification ≥70%) | ≤ 0.5 |  | C=CC(=O)N1CC[C@@H](Oc2nc(OC[C@@]34CCCN3C[C@H](F)C4)nc3c(F)c(-c4ccc(F)c5sc(N)c(C#N)c45)ccc23)[C@H]1C [Compound 76, 4-(4-(((2R,3R)-1-acryloyl-2-methylpyrrolidin-3-yl)oxy)-8-fluoro-2-(((2R,7aS)-2-fluorotetrahydro-1H-pyrrolizin-7a (5H)-yl)methoxy)quinazolin-7-yl)-2-amino-7-fluorobenzo[b]thiophene-3-carbonitrile]
A (percent of modification ≥70%) | ≤ 0.1 | A (percent of modification ≥70%) | A (percent of modification ≥70%) | ≤ 0.5 |  | C=CC(=O)N1C[C@H](Oc2nc(OC[C@@]34CCCN3C[C@H](F)C4)nc3c(F)c(-c4ccc(F)c5sc(N)c(C#N)c45)ccc23)[C@@H](F)C1 [Compound 77]
A (percent of modification ≥70%) | ≤ 0.1 | A (percent of modification ≥70%) | A (percent of modification ≥70%) | ≤ 0.5 |  | C=CC(=O)N1C[C@@H](F)[C@@H](Oc2nc(OC[C@@]34CCCN3C[C@H](F)C4)nc3c(F)c(-c4ccc(F)c5sc(N)c(C#N)c45)ccc23)C1 [Compound 80]
